Test results: patent US5316771A, “Method of amphiphatic drug loading in liposomes by ammonium ion gradient” (priority 1992, dated 1994)
Like-named read-outs stand apart in the source and are kept apart here.

Assays:
[1] = Quenching of acridine orange fluorescence on incorporation into liposomes; assay type: physicochemical; conditions: liposomes with external ammonium sulfate removed
Procedure: In order to further substantiate the existence of the ammonium gradient, the same experiment as described above was repeated with the other compounds such as acridine orange, a cytotoxic drug acridine orange is an amphiphatic weak base (pK=9.25), which has the advantage of being fluorescent. Instead of trapping pyranine inside the ammonium sulfate liposomes, liposomes were added to a solution containing acridine orange. The quenching of the resulting solution was monitored following partitioning into the aqueous phase of the liposome, using the experimental designs described in Example 5 and illustrated in FIG. 2.
Inset graph is an example of one of the experiments. Percentage of fluorescence intensity (F.I.) of acridine orange was monitored continuously and is shown here as (a). At the specified time (b) liposomes were added and the quenching was followed. At steady state, 5 um of nigericin was added, shown here as (c) and the extent of the release of quenching was used to calculate the ammonium sulfate gradient dependent fluorescence intensity. The details of the experiment are described in Example 5.
1 umol of acridine orange was added to a solution containing different proportions of potassium chloride and ammonium sulfate. The solution was designed to get different outside-inside gradients of ammonium sulfate when the liposomes are added. […] The recovery of fluorescence was monitored. […]

[2] = cited from earlier work
[3] = Loading of daunorubicin into ammonium sulfate liposomes
Procedure: After separation of untrapped ammonium sulfate by Sephadex G- 50, 1 ml of the liposome dispersion was mixed with 10 mg of daunorubicin dissolved in 1 ml of 50° C. and at specified time intervals aliquots were taken.

[4] = sodium/potassium gradient with valinomycin; cited from earlier work
[5] = Loading of doxorubicin into ammonium sulfate liposomes (NH4+ gradient), Dowex removal of free drug; assay type: physicochemical; conditions: biphasic, FIG. 3
Procedure: Two preparations of liposomes were used, one composed of EPC and cholesterol in molar ratio of 2:1; and second of DPPC and cholesterol in molar ratio 2:1.
The loading was started after removal of external untrapped ammonium sulfate by Sephadex G-50 gel exclusion chromatography.
Dowex binds Desferal and therefore the latter was added to final concentration of 0.5 mM immediately after the removal of the free drug by Dowex.
In order to determine the concentration of a loaded drug inside liposomes, the internal aqueous osmotic volume of the vesicles was measured. This was done by the entrapment of the non-measurable radioactive tracer ^3 H inulin. The comparison of the radioactivity per mole phospholipids before and after removal of the untrapped inulin was used to determine trapped volume using a procedure described in individual examples.
In all cases the gradient was obtained by gel exclusion chromatography of the liposomes after ammonium sulfate loading.
The incubation was shorter for certain types of kinetic experiments. At the end of incubation period, the mixture was passed through a Dowex 50 WX-4 (Serva) column to adsorb the free, unincorporated drug. […] A column containing 1-2 g dry weight of the resin was sufficient to adsorb all unincorporated drug. […] EPC was used for a standard curve.
The mixture was incubated at room temperature for approximately 24 hours. […]

[6] = Self-quenching of doxorubicin fluorescence; assay type: physicochemical
Procedure: The measurements were carried on a Perkin-Elmer MPF-44 spectrofluorometer, using excitation/emission wavelengths of 470 nm and 590 nm respectively. […] This was calculated from the difference between the fluorescence of the liposomes prepared according to Examples 1-4, and the fluorescence of the same mixture after diluting it 10 times with isopropanol containing 10% of 0.75% HCI. […] A correction for the difference in fluorescence of doxorubicin in water and the acidified isopropanol solution, deduced from measurements of the fluorescence of "free" drug in the two solutions, was introduced. The small amount of unquenched doxorubicin is probably due to some free-drug that leaked out of the vesicles.

[7] = Biochemistry, 21:3927-3932; cited from earlier work
[8] = around 24 hours; cited from earlier work
[9] = Source text: For this, ammonium carbonate (0.12M) was placed in a beaker. The ultrasound probe was attached to the beaker.

In the case of CN(C)c1ccc2cc3ccc(N(C)C)cc3nc2c1 [Acridine orange], the “Quenching of acridine orange fluorescence” value [1] is given as 96.5% and the pK [2] is given as 9.25.
With COc1cccc2c1C(=O)c1c(O)c3c(c(O)c1C2=O)C[C@@](O)(C(C)=O)C[C@@H]3O[C@H]1C[C@H](N)[C@H](O)[C@H](C)O1 [Daunorubicin] the “Rate of incorporation compared with doxorubicin” value [3] was “higher than that of doxorubicin” and the “Time to completion of incorporation” value [3] was “less than one hour”.
For CCCCOc1cc(C(=O)NCCN(CC)CC)c2ccccc2n1 [Dibucaine], the Loading [4] is listed as “up to 52%”.
With COc1cccc2c1C(=O)c1c(O)c3c(c(O)c1C2=O)C[C@@](O)(C(=O)CO)C[C@@H]3O[C@H]1C[C@H](N)[C@H](O)[C@H](C)O1 [Doxorubicin] the “Duration of slower phase of loading” value [5] was “about 24 hours”, the “Concentration above which fluorescence is quenched” value ([6]; in saline) was “higher than 10^-6 M” and the Quenching ([6]; in solution, concentration 1.7.10^-4, corrected for inner filter effect) was 33%. It also gave a Quenching ([6]; in solution, concentration 3.4.10^-5, corrected for inner filter effect) of 16%, a Quenching ([6]; in solution, concentration 6.9.10^-5, corrected for inner filter effect) of 25% and a Quenching ([6]; inside the liposomes) of about 100%. The “Concentration above which dimers and aggregates form” value [7] was “higher than 1 um” and the Leakage from liposomes [8] was “substantial leakage”.
For N.N.O=C(O)O [ammonium carbonate], the Ultrasound signal ([9]; HCl added to pH 4.0) was “large signal” and the Ultrasound signal ([9]; before acidification, 0.12M) was “No signal was observed”.
